Measurements reported in patent US20230233576A1, “ECLITASERTIB FOR USE IN TREATING CONDITIONS INVOLVING SYSTEMIC HYPERINFLAMMATORY RESPONSE” (priority 2020, published 2023).

System: adult participants hospitalized for severe COVID-19
Assay: Phase 1b severe COVID-19 study: oxygenation (SpO2, SpO2/FiO2 ratio, days without oxygen support, VFD, RFFD)
Format: in vivo, human
Conditions: for Change from baseline in SpO2/FiO2 ratio, point estimate / Change from baseline in SpO2/FiO2 ratio, adjusted treatment difference RIPK1 Inhibitor vs placebo: MMRM, LOCF; for median change from baseline in SpO2/FiO2 ratio: observed data; for median change in SpO2/FiO2 ratio from baseline: LOCF imputation
Protocol: This study was a multinational, multi-center, double-blind, 2:1 randomized (RIPK1 Inhibitor to placebo), placebo-controlled study in adult participants hospitalized for severe COVID-19.
Participants were assigned to treatment according to randomization list. Six RIPK1 Inhibitor 50 mg capsules (300 mg) or matching placebo capsules were administered orally in fasting or fed conditions twice a day (BID). For participants intubated with feeding tube in place, the IMPs were given as suspension by feeding tube.
The main secondary clinical assessments endpoints included: • Time to 50% decrease from baseline in CRP level • Time to improvement of oxygenation as measured by oxygen saturation≥92% breathing room air over 48 hours or until discharge • Change from baseline in SPO2/FiO2 ratio at Day 7
Other secondary clinical assessment endpoints included: • Number of Days without need for oxygen support and alive (oxygen saturation≥92% breathing room air) up to Day 28 • Numbers of Ventilator-free days and alive up to Day 28 • Change from baseline in markers of inflammation (White blood cell count, differential blood lymphocytes, neutrophil to lymphocyte ratio, IL-6) and D-Dimer at Day 7 and EOT • Incidence of Deaths up to Day 28 • Percentage of participants receiving thrombolytic treatment up to Day 28 • Percentage of participants receiving vasopressor treatment up to Day 28 • Numbers of Respiratory Failure-Free Days (RFFD) and alive up to Day 28
The time to improvement of oxygenation as measured by oxygen saturation>92% breathing room air over 48 hours or until discharge was estimated using the Kaplan-Meier approach and treatment arms were compared in an exploratory fashion using the log-rank test.
Presence of SO2≥92% without use of any supplemental oxygen device on two consecutive days (earliest occurrence) or at day of discharge was considered as event. If such criterion was not met, time to event was censored at the time point of the last observation of SpO2 collected. For participants who died during the study without experiencing the event, similar LOCF approached was used and a sensitivity analysis was performed as described in Section 1.7.1.1.2.1.
The number and percentage of participants who experience the event without applying censoring rules was reported at Days 3, 5, 7, 15 and 28.
The analysis of the change from baseline in SpO2/FiO2 ratio was based on a MMRM model fitted on observed values for Days 2, 3, 4, 5, 6, 7 and 15. The model included fixed effects for participant-specific SpO2/FiO2 ratio at baseline, respective visit, treatment group, and visit-by-treatment group interaction, and random effects for sites. Repeated measurements for each visit were taken within participant assuming an unstructured covariance pattern within treatment group.
The LS means for the difference in change from baseline at Day 7 between RIPK1 Inhibitor and placebo were provided, jointly with the corresponding 90% confidence interval.
The point estimate of the change from baseline in SpO2/FiO2 ratio and the difference between treatment groups and two-sided 90% confidence interval value were reported for Day 2 to 7 and EOT as described above. Time profile plots of point estimates of the change from baseline (+/−90% Cis) were presented by treatment group.
Missing values for the change from baseline in SpO2/FiO2 ratio were replaced following the LOCF approach, regardless if occurring before or after discontinuation/discharge/death. In case no LOCF could be identified (e.g., no post-baseline value prior to Day 2 to replace a missing Day 2 result), the missing value was not imputed. A sensitivity analysis was performed by repeating the above analysis without any imputation of missing values.

[1] = 600 mg, Baseline, Efficacy population
[2] = 600 mg, Day 2, Efficacy population
[3] = 600 mg, Day 3, Efficacy population
[4] = 600 mg, Day 4, Efficacy population
[5] = 600 mg, Day 5, Efficacy population
[6] = 600 mg, Day 6, Efficacy population
[7] = 600 mg, Day 7, Efficacy population
[8] = 600 mg, Day 8, Efficacy population
[9] = 600 mg, Day 9, Efficacy population
[10] = 600 mg, Day 10, Efficacy population
[11] = 600 mg, Day 11, Efficacy population
[12] = 600 mg, Day 12, Efficacy population
[13] = 600 mg, Day 13, Efficacy population
[14] = 600 mg, Day 14, Efficacy population
[15] = 600 mg, Day 15, Efficacy population
[16] = 600 mg, up to Day 28, Efficacy population

CN1C(=O)[C@@H](NC(=O)c2nnc(Cc3ccccc3)[nH]2)COc2cccnc21 [RIPK1 Inhibitor, (S)-5-benzyl-N-(5-methyl-4-oxo-2,3,4,5-tetrahydropyrido[3,2-b][1,4]oxazepin-3-yl)-4H-1,2,4-triazole-3-carboxamide]
difference of VFDs or RFFDs between the 2 treatment arms in favor of RIPK1 Inhibitor (600 mg vs placebo, based on mean values, 28-day study period): 3
difference in mean days (without oxygen support, VFDs, RFFDs) in favor of RIPK1 Inhibitor group (600 mg vs placebo, up to 15-day treatment period): 1 days
SpO2/FiO2 ratio, raw data, Mean [1]: 298.0
SpO2/FiO2 ratio, raw data, Median [1]: 306.3
SpO2/FiO2 ratio, change from baseline, Mean [2]: 16.8
SpO2/FiO2 ratio, change from baseline, Median [2]: 3.3
SpO2/FiO2 ratio, raw data, Mean [2]: 314.8
SpO2/FiO2 ratio, raw data, Median [2]: 290.9
Change from baseline in SpO2/FiO2 ratio, point estimate (600 mg, Day 02, Efficacy population): 72.02
median change from baseline in SpO2/FiO2 ratio (600 mg, Day 2): 3.3
SpO2/FiO2 ratio, change from baseline, Mean [3]: 43.9
SpO2/FiO2 ratio, change from baseline, Median [3]: 30.9
SpO2/FiO2 ratio, raw data, Mean [3]: 337.9
SpO2/FiO2 ratio, raw data, Median [3]: 330.6
median change in SpO2/FiO2 ratio from baseline (600 mg, Day 3): 29.0
Change from baseline in SpO2/FiO2 ratio, point estimate (600 mg, Day 03, Efficacy population): 97.90
SpO2/FiO2 ratio, change from baseline, Mean [4]: 50.8
SpO2/FiO2 ratio, change from baseline, Median [4]: 47.3
SpO2/FiO2 ratio, raw data, Mean [4]: 340.4
SpO2/FiO2 ratio, raw data, Median [4]: 355.5
median change in SpO2/FiO2 ratio from baseline (600 mg, Day 4): 38.1
Change from baseline in SpO2/FiO2 ratio, point estimate (600 mg, Day 04, Efficacy population): 104.61
median change from baseline in SpO2/FiO2 ratio (600 mg, Day 4): 47.3
SpO2/FiO2 ratio, change from baseline, Mean [5]: 62.7
SpO2/FiO2 ratio, change from baseline, Median [5]: 69.6
SpO2/FiO2 ratio, raw data, Mean [5]: 350.5
SpO2/FiO2 ratio, raw data, Median [5]: 356.1
median change in SpO2/FiO2 ratio from baseline (600 mg, Day 5): 70.8
Change from baseline in SpO2/FiO2 ratio, point estimate (600 mg, Day 05, Efficacy population): 121.79
SpO2/FiO2 ratio, change from baseline, Mean [6]: 72.5
SpO2/FiO2 ratio, change from baseline, Median [6]: 73.9
SpO2/FiO2 ratio, raw data, Mean [6]: 358.7
SpO2/FiO2 ratio, raw data, Median [6]: 384.0
median change in SpO2/FiO2 ratio from baseline (600 mg, Day 6): 113.8
Change from baseline in SpO2/FiO2 ratio, point estimate (600 mg, Day 06, Efficacy population): 134.66
Change from baseline in SpO2/FiO2 ratio, adjusted treatment difference RIPK1 Inhibitor vs placebo [6]: 28.71
median change from baseline in SpO2/FiO2 ratio (600 mg, Day 6): 73.9
SpO2/FiO2 ratio, change from baseline, Mean [7]: 89.2
SpO2/FiO2 ratio, change from baseline, Median [7]: 124.1
SpO2/FiO2 ratio, raw data, Mean [7]: 367.1
SpO2/FiO2 ratio, raw data, Median [7]: 418.2
median change in SpO2/FiO2 ratio from baseline (600 mg, Day 7): 115.3
Change from baseline in SpO2/FiO2 ratio, point estimate (600 mg, Day 07, Efficacy population): 142.21
Change from baseline in SpO2/FiO2 ratio, adjusted treatment difference RIPK1 Inhibitor vs placebo [7]: 25.24
median change from baseline in SpO2/FiO2 ratio (600 mg, Day 7): 124.1
SpO2/FiO2 ratio, change from baseline, Mean [8]: 99.2
SpO2/FiO2 ratio, change from baseline, Median [8]: 131.4
SpO2/FiO2 ratio, raw data, Mean [8]: 371.5
SpO2/FiO2 ratio, raw data, Median [8]: 433.3
median change in SpO2/FiO2 ratio from baseline (600 mg, Day 8): 125.6
SpO2/FiO2 ratio, change from baseline, Mean [9]: 111.2
SpO2/FiO2 ratio, change from baseline, Median [9]: 150.0
SpO2/FiO2 ratio, raw data, Mean [9]: 381.8
SpO2/FiO2 ratio, raw data, Median [9]: 445.2
SpO2/FiO2 ratio, change from baseline, Mean [10]: 119.8
SpO2/FiO2 ratio, change from baseline, Median [10]: 133.8
SpO2/FiO2 ratio, raw data, Mean [10]: 386.7
SpO2/FiO2 ratio, raw data, Median [10]: 447.6
SpO2/FiO2 ratio, change from baseline, Mean [11]: 111.0
SpO2/FiO2 ratio, change from baseline, Median [11]: 153.7
SpO2/FiO2 ratio, raw data, Mean [11]: 373.2
SpO2/FiO2 ratio, raw data, Median [11]: 445.2
SpO2/FiO2 ratio, change from baseline, Mean [12]: 138.8
SpO2/FiO2 ratio, change from baseline, Median [12]: 190.3
SpO2/FiO2 ratio, raw data, Mean [12]: 401.0
SpO2/FiO2 ratio, raw data, Median [12]: 452.4
SpO2/FiO2 ratio, change from baseline, Mean [13]: 129.1
SpO2/FiO2 ratio, change from baseline, Median [13]: 195.1
SpO2/FiO2 ratio, raw data, Mean [13]: 389.5
SpO2/FiO2 ratio, raw data, Median [13]: 457.1
SpO2/FiO2 ratio, change from baseline, Mean [14]: 139.4
SpO2/FiO2 ratio, change from baseline, Median [14]: 192.7
SpO2/FiO2 ratio, raw data, Mean [14]: 414.8
SpO2/FiO2 ratio, raw data, Median [14]: 454.8
SpO2/FiO2 ratio, change from baseline, Mean [15]: 160.6
SpO2/FiO2 ratio, change from baseline, Median [15]: 195.1
SpO2/FiO2 ratio, raw data, Mean [15]: 436.0
SpO2/FiO2 ratio, raw data, Median [15]: 457.1
median change in SpO2/FiO2 ratio from baseline (600 mg, Day 15): 135.1
Change from baseline in SpO2/FiO2 ratio, point estimate [15]: 174.65
median change from baseline in SpO2/FiO2 ratio (600 mg, Day 15): 195.1
median time to improvement of oxygenation (SpO2 >=92% breathing room air) (600 mg, Kaplan-Meier, Efficacy population): 6 days
Number of Days without need for Oxygen Support and Alive, Mean [16]: 20.5 days
Number of Days without need for Oxygen Support and Alive, Median [16]: 23.0 days
Number of Respiratory Failure-Free Days and Alive, Mean [16]: 25.9 days
Number of Respiratory Failure-Free Days and Alive, Median [16]: 28.0 days
Number of Ventilator-Free Days and Alive, Mean [16]: 26.0 days
Number of Ventilator-Free Days and Alive, Median [16]: 28.0 days
